From patent US8993595B2, “Macrocyclic serine protease inhibitors” (priority 2009, dated 2015)

Experiments:
[1] = system: HCV Con1 subgenomic replicon in Huh-7 cells (GS4.1 cells); assay: HCV Replicon Assay (NS4A ELISA); type: cell-based; details: Hepatitis C virus, 72 hr
Protocol: Huh-7 cells containing HCV Con1 subgenomic replicon (GS4.1 cells) were grown in Dulbecco's Modified Eagle Medium (DMEM) supplemented with 10% fetal bovine serum (FBS), 2 mM L-glutamine, 110 mg/L sodium pyruvate, 1× non-essential amino acids, 100 U/mL penicillin-streptomycin, and 0.5 mg/mL G418 (Invitrogen). For dose-response testing, the cells were seeded in 96-well plates at 7.5×10^3 cells/well in a volume of 50 μL, and incubated at 37° C./5% CO2. Three hours after plating, 50 μL of ten 2-fold serial dilutions of compounds (highest concentration, 75 μM) were added, and cell cultures were incubated at 37° C./5% CO2 in the presence of 0.5% DMSO. Alternatively, compounds were tested at a single concentration of 15 μM. In all cases, Huh-7 cells lacking the HCV replicon served as negative control. The cells were incubated in the presence of compounds for 72 hr after which they were monitored for expression of the NS4A protein by enzyme-linked immunosorbent assay (ELISA). For this, the plates were then fixed for 1 min with acetone/methanol (1:1, v/v), washed twice with phosphate-buffered saline (PBS), 0.1% Tween 20, blocked for 1 hr at room temperature with TNE buffer containing 10% FBS and then incubated for 2 hr at 37° C. with the anti-NS4A mouse monoclonal antibody A-236 (ViroGen) diluted in the same buffer. After washing three times with PBS, 0.1% Tween 20, the cells were incubated 1 hr at 37° C. with anti-mouse immunoglobulin G-peroxidase conjugate in TNE, 10% FBS. After washing as described above, the reaction was developed with O-phenylenediamine (Zymed). The reaction was stopped after 30 min with 2 N H2SO4, and absorbance was read at 492 nm using Sunrise Tecan spectrophotometer. EC50 values were determined from the % inhibition versus concentration data using a sigmoidal non-linear regression analysis based on four parameters with Tecan Magellan software.

[2] = system: Replicon cells (genotype 1b); assay: Long-term treatment assay in replicon cells; type: cell-based, HCV
Protocol: Compound 52 was tested in a long-term treatment assay. Replicon cells (genotype 1b) were treated with the compound, without G418, for 14 days, and the level of replicon RNA was measured at multiple time points. At the end of the 14-day treatment, cells were cultured in the absence of the compound, but with or without G418, in 10 cm dishes for 21 days. Surviving cell colonies were then stained with crystal violet and counted.

[3] = system: JFH-1 (genotype 2a) virus in HPC cells; assay: HCV in vitro infection core ELISA assay; type: cell-based
Protocol: HPC cells were infected with JFH-1 (genotype 2a) and treated with the compound for 4 days (virus inoculum was removed after 16 hrs). Remaining virus was measured by an anti-HCV core ELISA. Compound cytotoxicity was also measured in parallel using a colorimetric proliferation assay as described in Example 5.
The HCV in vitro infection core ELISA assay measures the ability of a test compound to inhibit replication of an infectious HCV (strain JFH-1; genotype 2a) in cell culture. […] We have developed this model for determining the efficacy of antiviral compounds against an infectious virus in vitro using HCV producing cells (HPC), a proprietary Huh-7-derived cell sublineage capable of propagating the JFH-1 HCV virus. The readout of the assay is quantification of HCV core protein by ELISA 5 days post infection with JFH-1 virus and treatment with a test compound. […]
OPD solution was prepared using 1 OPD tablet+12 mL citrate/phosphate buffer (16 mM citric acid, 27 mM Na2HPO4) plus 5 μL 30% H2O2 per plate. […] The reaction was stopped with 100 μL/well of 2N H2SO4, and absorbance measured at A490 nm in a Victor^3 V 1420 multilabel counter (Perkin Elmer). The EC50 values for each compound were calculated from dose response curves from the resulting best-fit equations determined by Microsoft Excel and XLfit 4.1 software. […]

in vitro = details: human, Caco-2, pH 7.4
Protocol: Caco-2 cells were grown to confluence on collagen-coated, microporous, polycarbonate membranes in 12-well Costar Transwell plates. 5 μM of compound 52 was prepared in Hanks balanced salt solution containing 10 mM HEPES and 15 mM glucose at a pH of 7.4. Cell monolayers were dosed on the apical side (A-to-B) or basolateral side (B-to-A). Samples were taken from the receiver chambers at 120 min and quantified by LC-MS/MS.

[4] = human, in vivo

COc1ccc2c(O[C@H]3CCN4C(=O)N(C)CCCC/C=C\[C@@H]5C[C@@]5(C(=O)NS(=O)(=O)C5(C)CC5)NC(=O)[C@@H]4C3)cc(-c3nc(C(F)(F)F)cs3)nc2c1C [Compound 52, 1-methyl-cyclopropanesulfonic acid{(Z)-(1S,4R,6S,18S)-18-[7-methoxy-8-methyl-2-(4-trifluoromethyl-thiazol-2-yl)-quinolin-4-yloxy]-13-methyl-2,14-dioxo-3,13,15-triaza-tricyclo[13.4.0.0*4,6*]nonadec-7-ene-4-carbonyl}amide]
EC50 [1]: < 1000 nM | colonies remained on average ([2]; 14-day treatment with 10 nM, then cultured with G418 for 21 days): 6 colonies | mean maximal RNA reduction ([2]; replicon RNA, after 10 days of treatment with 10 nM, without G418): 3.7 log10 | Selectivity Index ([3]; 2a virus): 2,568 | EC50 ([3]; Hepatitis C virus, 96 h, 2a virus (JFH-1), HPC cells, 4 days, anti-HCV core ELISA): 4.4 ± 0.6 nM | Papp (in vitro): 1.8 ×10⁻⁶ cm/s | efflux ratio (in vitro): 2.7 | C24 hr [4]: 8 ± 5 ng/mL
